Source: publication PMC9633586 (Biochemistry, 2022)

Molecular target: Cj1438 (Campylobacter jejuni, UniProt Q0P8H6)
Assay: […] NMR, formation of S-11
Assay type: biochemical
Settings: 20 mM MgCl2, 10 mM ATP, 10 mM D-glucuronate, 50 mM HEPES/K+ pH 8.0, 25 °C

## N[C@@H](CO)COP(=O)(O)O [S-4, S-serinol phosphate]
  31P NMR, formation of S-11: Cj1438 catalyzes the formation of compound S-11 using D-glucuronate, MgATP, and S-serinol phosphate (S-4).
